# In patent US8933103B2, “Pyridone derivatives” (Daiichi Sankyo Company, Limited, priority 2012, dated 2015):
# Target: T1, AXL (fusion protein of amino acids 464-885 of the intracellular domain of human AXL with glutathione transferase) (Homo sapiens, UniProt P30530)
# T1 sequence (P30530 464-885 isoform P30530-2): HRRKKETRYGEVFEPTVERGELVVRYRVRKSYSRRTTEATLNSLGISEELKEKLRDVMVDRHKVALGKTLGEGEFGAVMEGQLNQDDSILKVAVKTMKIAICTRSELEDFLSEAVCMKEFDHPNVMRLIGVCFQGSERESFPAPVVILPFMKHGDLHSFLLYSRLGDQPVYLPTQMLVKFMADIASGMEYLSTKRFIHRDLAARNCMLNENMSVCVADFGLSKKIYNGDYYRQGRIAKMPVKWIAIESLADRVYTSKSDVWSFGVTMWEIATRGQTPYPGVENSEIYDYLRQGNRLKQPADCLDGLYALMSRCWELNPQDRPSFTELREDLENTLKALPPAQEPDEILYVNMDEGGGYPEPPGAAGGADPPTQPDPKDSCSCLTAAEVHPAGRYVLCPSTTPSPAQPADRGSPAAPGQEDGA
# Experiment: Cell-Free Axl Kinase Inhibitory Activity
# Method: Next, the test compound was diluted with DMSO, and 1 μl of this diluted solution was added to each well.
# Five microliters of this solution were added to each well to initiate a kinase reaction. The plate was incubated at 28° C. for 1.5 hours, and 40 μl of a termination buffer (100 mM HEPES (pH 7.4), 0.015% Brij-35, 40 mM EDTA, 0.1% Coating Reagent 3) was added to each well to terminate the reaction.
# The substrate peptide and the phosphorylated peptide in the reaction solution were separated and quantified by EZ Reader II (Caliper Life Sciences).
# IC50 was determined from inhibition data for 12 test compound concentrations by nonlinear regression (four-parameter logistic regression) using the following formula.
row,IC50,Structure (SMILES)
1,1 to 10 nM,"COc1ccc(-c2cnc(N)c(-c3ccc(NC(=O)c4cn(CC(=O)N(C)C)cc(-c5ccc(F)cc5)c4=O)cc3)c2)cc1OC [Example 16, N-{4-[2-Amino-5-(3,4-dimethoxyphenyl)pyridin-3-yl]phenyl}-1-[2-(dimethylamino)-2-oxoethyl]-5-(4-fluorophenyl)-4-oxo-1,4-dihydropyridine-3-carboxamide]"
2,0.1 to 1 nM,"COc1ccc(-c2cnc(N)c(-c3ccc(NC(=O)c4cn(CC(F)(F)OC)cc(-c5ccc(F)cc5)c4=O)cc3)c2)cc1OC [Example 17, N-{4-[2-Amino-5-(3,4-dimethoxyphenyl)pyridin-3-yl]phenyl}-1-(2,2-difluoro-2-methoxyethyl)-5-(4-fluorophenyl)-4-oxo-1,4-dihydropyridine-3-carboxamide]"
3,1 to 10 nM,"COc1ccc(-c2cnc(N)c(-c3ccc(NC(=O)c4cn(CCF)cc(-c5ccccc5)c4=O)cc3)c2)cc1OC [Example 19, N-{4-[2-Amino-5-(3,4-dimethoxyphenyl)pyridin-3-yl]phenyl}-1-(2-fluoroethyl)-4-oxo-5-phenyl-1,4-dihydropyridine-3-carboxamide]"
4,1 to 10 nM,"COc1ccc(-c2cnc(N)c(-c3ccc(NC(=O)c4cn(CC(F)(F)F)cc(-c5ccccc5)c4=O)cc3)c2)cc1OC [Example 20, N-{4-[2-Amino-5-(3,4-dimethoxyphenyl)pyridin-3-yl]phenyl}-4-oxo-5-phenyl-1-(2,2,2-trifluoroethyl)-1,4-dihydropyridine-3-carboxamide]"
5,1 to 10 nM,"COc1ccc(-c2cnc(N)c(-c3ccc(NC(=O)c4cn(CC(F)(F)F)cc(-c5ccccc5F)c4=O)cc3)c2)cc1OC [Example 21, N-{4-[2-Amino-5-(3,4-dimethoxyphenyl)pyridin-3-yl]phenyl}-5-(2-fluorophenyl)-4-oxo-1-(2,2,2-trifluoroethyl)-1,4-dihydropyridine-3-carboxamide]"
6,1 to 10 nM,"COc1ccc(-c2cnc(N)c(-c3ccc(NC(=O)c4cn(CC(F)(F)F)cc(-c5ccc(F)nc5)c4=O)cc3)c2)cc1OC [Example 23, N-{4-[2-Amino-5-(3,4-dimethoxyphenyl)pyridin-3-yl]phenyl}-6′-fluoro-4-oxo-1-(2,2,2-trifluoroethyl)-1,4-dihydro-3,3′-bipyridine-5-carboxamide]"
7,0.1 to 1 nM,"COc1ccc(-c2cnc(N)c(-c3ccc(NC(=O)c4cn(CC(F)(F)F)cc(-c5ccc(C)cc5)c4=O)cc3)c2)cc1OC [Example 24, N-{4-[2-Amino-5-(3,4-dimethoxyphenyl)pyridin-3-yl]phenyl}-5-(4-methylphenyl)-4-oxo-1-(2,2,2-trifluoroethyl)-1,4-dihydropyridine-3-carboxamide]"
8,1 to 10 nM,"COc1ccc(-c2cnc(N)c(-c3ccc(NC(=O)c4cn(CC(F)(F)F)cc(-c5ccc(Cl)cc5)c4=O)cc3)c2)cc1OC [Example 25, N-{4-[2-Amino-5-(3,4-dimethoxyphenyl)pyridin-3-yl]phenyl}-5-(4-chlorophenyl)-4-oxo-1-(2,2,2-trifluoroethyl)-1,4-dihydropyridine-3-carboxamide]"
9,0.1 to 1 nM,"COc1ccc(-c2cnc(N)c(-c3ccc(NC(=O)c4cn(Cc5ccc(F)cc5)cc(C(=O)N5CCCC5)c4=O)cc3)c2)cc1OC [Example 26, N-{4-[2-Amino-5-(3,4-dimethoxyphenyl)pyridin-3-yl]phenyl}-1-(4-fluorobenzyl)-4-oxo-5-(pyrrolidin-1-ylcarbonyl)-1,4-dihydropyridine-3-carboxamide]"
10,0.1 to 1 nM,"COc1ccc(-c2cnc(N)c(-c3ccc(NC(=O)c4cn(Cc5ccc(F)cc5)cc(C(=O)N5C[C@@H](C)O[C@@H](C)C5)c4=O)cc3)c2)cc1OC [Example 27, N-{4-[2-Amino-5-(3,4-dimethoxyphenyl)pyridin-3-yl]phenyl}-5-{[(2R,6S)-2,6-dimethylmorpholin-4-yl]carbonyl}-1-(4-fluorobenzyl)-4-oxo-1,4-dihydropyridine-3-carboxamide]"
